Results: PubChem BioAssay (NCI)
Several values for one entry are separate records, joined by “and”; a condition that tells them apart may be missing. Identical values can stand only once.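 Test compounds were applied to cells in 96-well plates for 48 hours at 5 doses. GI50 is the concentration that inhibits growth by half. Definition used: TGI = concentration required for complete inhibition of growth.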

How the values were obtained:
Test in all cases: inhibition of tumour cell growth, NCI panel, 48 h
NCI-H460 lung = test system: NCI-H460 lung
NCI-H522 lung = test system: NCI-H522 lung
SN12C renal = test system: SN12C renal
SF-295 CNS = test system: SF-295 CNS
MCF7 breast = test system: MCF7 breast
K-562 leukemia = test system: K-562 leukemia
ACHN renal = test system: ACHN renal
TK-10 renal = test system: TK-10 renal
RXF 393 renal = test system: RXF 393 renal
HS 578T breast = test system: HS 578T breast

Row | SMILES | GI50 (NCI-H460 lung) | GI50 (NCI-H522 lung) | GI50 (SN12C renal) | TGI (SN12C renal) | GI50 (SF-295 CNS) | TGI (SF-295 CNS) | GI50 (MCF7 breast) | TGI (MCF7 breast) | GI50 (K-562 leukemia) | TGI (K-562 leukemia) | GI50 (ACHN renal) | TGI (ACHN renal) | GI50 (TK-10 renal) | TGI (TK-10 renal) | GI50 (RXF 393 renal) | TGI (RXF 393 renal) | GI50 (HS 578T breast) | TGI (HS 578T breast) | TGI (NCI-H460 lung) | TGI (NCI-H522 lung)
1 | CN(C)c1ccc(/C=C(\C#N)c2ccccc2)cc1 | 0.356 µM and 0.415 µM and 0.431 µM | 0.369 µM and 0.43 µM and 0.681 µM | 0.553 µM and 0.788 µM and 0.764 µM | > 100 µM | 0.225 µM and 0.421 µM | 0.99 µM and 5.97 µM | 0.261 µM and 0.276 µM and 0.281 µM | > 100 µM | 0.194 µM and 0.337 µM and 0.35 µM | > 100 µM | 0.901 µM and 0.688 µM and 1.37 µM | > 100 µM | 0.553 µM and 0.999 µM and 4.9 µM | > 100 µM | 0.394 µM and 0.662 µM and 0.817 µM | 3.09 µM and 5.77 µM | – | – | – | –
2 | COc1cccc(CCNC(=O)CC(c2ccccc2)(c2ccccc2)c2ccccc2)c1 | 10.5 µM | – | – | – | 4.36 µM | > 100 µM | 21.5 µM | > 100 µM | 6.03 µM | > 100 µM | 7.84 µM | 94.8 µM | 21.9 µM | 82.2 µM | – | – | > 100 µM | > 100 µM | > 100 µM | –
3 | CCc1cccc(C)c1N1C(=O)C(=O)C(c2nc3ccccc3o2)/C(=N/NC(=S)NN)C1=O (centres undefined) | – | – | – | > 100 µM | – | > 100 µM | – | – | – | > 100 µM | – | > 100 µM | – | > 100 µM | – | > 100 µM | – | – | > 100 µM | > 100 µM
4 | Cc1cc(O[C@@H]2O[C@@H](C)[C@H](O)[C@@H](O)[C@H]2O)c2c3c(c(O[C@@H]4O[C@@H](C)[C@H](O)[C@@H](O)[C@H]4O)cc2c1)C(=O)c1c(O)cccc1C3=O | > 30 µM | – | > 30 µM | > 30 µM | > 30 µM | > 30 µM | > 30 µM | > 30 µM | > 30 µM | > 30 µM | > 30 µM | > 30 µM | – | – | > 30 µM | > 30 µM | > 30 µM | > 30 µM | > 30 µM | –
5 | COc1ccc(N=N/C(=N\NC(=O)c2cc(Br)ccc2O)c2ccc(N(CCC#N)CCC#N)cc2OC)cc1 | 33.5 µg/mL | 40.1 µg/mL | 77.6 µg/mL | > 150 µg/mL | 73.8 µg/mL | > 150 µg/mL | 58.7 µg/mL | > 150 µg/mL | 74.9 µg/mL | > 150 µg/mL | 85.7 µg/mL | > 150 µg/mL | – | – | 50.2 µg/mL | > 150 µg/mL | 82.5 µg/mL | > 150 µg/mL | 109 µg/mL | 141 µg/mL
6 | CCC1=C[C@@H]2CN(C1)Cc1c([nH]c3ccccc13)[C@@](C(=O)OC)(c1cc3c(cc1OC)N(C)[C@H]1[C@@](O)(C(=O)OC)[C@H](OC(C)=O)[C@]4(CC)C=CCN5CC[C@]31[C@@H]54)C2 | < 0.01 µM | < 0.0227 µM | < 0.0214 µM | 43.7 µM | < 0.01 µM | – | < 0.01 µM | 11.5 µM | < 0.01 µM | 18.9 µM | 0.194 µM | 25.6 µM | 0.641 µM | 16.7 µM | – | – | < 0.01 µM | 9.59 µM | 0.444 µM | > 31.8 µM
7 | CC12CC/C(=N/NC(N)=O)C3C1CCCC32 | – | – | – | > 100 µM | – | > 100 µM | – | – | – | > 100 µM | – | > 100 µM | – | > 100 µM | – | – | – | – | > 100 µM | > 100 µM
8 | CN(C)CCCOc1ccc(/C=C2/CCC/C(=C/c3ccc(OCCCN(C)C)cc3)C2=O)cc1 | – | – | – | 2.96 µM | – | 3.65 µM | – | – | – | 1.24 µM | – | 4.13 µM | – | 5.33 µM | – | 2.98 µM | – | – | 4.16 µM | 3.75 µM
